Measured values reported in patent US8507538B2, “Selective heterocyclic sphingosine 1 phosphate receptor modulators” (Receptos, Inc., priority 2009, dated 2013).
Counter-ions that a name gives are not always drawn.

These compounds were tested against S1P1/EDG1 (Homo sapiens, UniProt P21453) (assay: S1P1 CRE-bla CHOK1 reporter assay (inhibition of Forskolin induced cAMP)). Details: agonist activity range, Table 2; read-out: S1P1 ACTIVITY.
Type: cell-based
Excerpt: A mammalian expression plasmid containing S1P1/EDG1 cloned into pcDNA3.1 was purchased from Missouri S&T cDNA Resource Centre. The nucleotide and amino acid sequence of human S1P1/EDG1 are published in Hla and Maciag (J Biol Chem, 265(1990), 9308-9313). S1P1/pcDNA3.1 was transfected into the CRE-bla CHO K1 (Invitrogen) cell line, and stable single cell clones were selected using standard techniques. Expression of functional SIP1/EDG1 receptor was confirmed by cell surface FACS with a S1P1 antibody (R&D Systems, clone 218713) and S1P-mediated inhibition of Forskolin induced cAMP.
Cells were seeded into 384-well black wall/clear bottom plates at 10^4 cells/well/19.5 μl assay media (DMEM-phenol free, 0.5% charcoal/dextran stripped serum, 2 mM glutamine, 0.1 mM NEAA, 1 mM Na-Pyruvate, 25 mM Hepes) and incubated for 18 hrs at 37° C. in 5% CO2. Dose response curves (10-point) were generated in 10 mM Hepes, 0.1% Pluronic F127, in the presence of Forskolin. Cells were treated with 0.5 μl compound in the presence of 2 μM Forskolin for 4 hrs at 37° C. The FRET-based β-lactamase fluorescent substrate (LiveBLAzer™ FRET B/G Loading Kit CC4-AM; Invitrogen) was prepared according to manufacturer's directions, and incubated with cells for 2 hrs at room temperature. Plates were read at Ex:410/Em:458 and Ex:410/Em:522, and the response ratio determined. Data was analyzed by non-linear regression to determine the EC50 for inhibition of Forskolin induced cAMP.

S1P1/EDG1, sequence (P21453 whole entry): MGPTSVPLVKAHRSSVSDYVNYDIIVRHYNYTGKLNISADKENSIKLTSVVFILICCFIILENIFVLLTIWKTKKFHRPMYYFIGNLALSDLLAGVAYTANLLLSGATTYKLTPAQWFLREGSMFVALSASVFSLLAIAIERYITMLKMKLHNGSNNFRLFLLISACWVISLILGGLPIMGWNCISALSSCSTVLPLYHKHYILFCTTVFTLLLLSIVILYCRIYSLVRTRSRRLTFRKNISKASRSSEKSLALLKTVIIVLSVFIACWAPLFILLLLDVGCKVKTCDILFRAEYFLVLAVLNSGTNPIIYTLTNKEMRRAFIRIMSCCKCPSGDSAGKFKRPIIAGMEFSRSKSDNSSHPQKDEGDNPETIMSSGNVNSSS

`CC(C)Oc1ccc(-c2nnc(-c3cccc4c3CCC4O)s2)cc1C#N` (stereo in doubt) [Compound 2, (R)-5-(5-(1-hydroxy-2,3-dihydro-1H-inden-4-yl) -1,3,4-thiadiazol-2-yl)-2-isopropoxybenzonitrile] and `CC(C)Oc1ccc(-c2nnc(-c3cccc4c3CC[C@@H]4O)s2)cc1C#N` [Compound 1, (S)-5-(5-(1-hydroxy-2,3-dihydro-1H-inden-4-yl)-1,3,4-thiadiazol-2-yl)-2-isopropoxybenzonitrile] fall in the same range of EC50: 0.05 to 0.5 nM for the first, 0.05 to 0.5 nM for the second.

First: CC(C)Oc1ccc(-c2nnc(-c3cccc4c3CCC4N)s2)cc1C#N (stereo in doubt) [Compound 5, (R)-5-(5-(1-amino-2,3-dihydro-1H-inden-4-yl)-1,3,4-thiadiazol-2-yl) -2 isopropoxybenzonitrile hydrochloride]
Second: CC(C)Oc1ccc(-c2nnc(-c3cccc4c3CCC4NS(N)(=O)=O)s2)cc1C#N (stereo in doubt) [Compound 48, (R)-N-(4-(5-(3-cyano-4-isopropoxyphenyl)-1,3,4-thiadiazol-2-yl)-2,3-dihydro-1H-inden-1-yl)sulfamide]
The EC50 of the first is higher: 0.5 to 5 nM for the first, < 0.05 nM for the second.

`CC(C)Oc1ccc(-c2nnc(-c3cccc4c3CCC4NCCO)s2)cc1C#N` (stereo in doubt) [Compound 17, (R)-5-(5-(1-((2-hydroxyethyl)amino)-2,3-dihydro-1H-inden-4-yl)-1,3,4-thiadiazol-2-yl)-2-isopropoxybenzonitrile] and `CC(C)Oc1ccc(-c2nnc(-c3cccc4c3CCC4NCC(=O)O)s2)cc1C#N` (stereo in doubt) [Compound 27, (R)-2-((4-(5-(3-cyano-4-isopropoxyphenyl)-1,3,4-thiadiazol-2-yl)-2,3-dihydro-1H-inden-1-yl)amino)acetic acid] fall in the same range of EC50: 0.05 to 0.5 nM for the first, 0.05 to 0.5 nM for the second.

First: CC(C)Oc1ccc(-c2nnc(-c3cccc4c3CCC4NCC(=O)N(C)C)s2)cc1C#N (stereo in doubt) [Compound 22, (R)-2-((4-(5-(3-cyano-4-isopropoxyphenyl)-1,3,4-thiadiazol-2-yl)-2,3-dihydro-1H-inden-1-yl)amino)-N,N-dimethylacetamide hydrochloride]
Second: CC(C)Oc1ccc(-c2nnc(-c3cccc4c3CCC4NCCS(C)(=O)=O)s2)cc1C#N (stereo in doubt) [Compound 32, (R)-2-isopropoxy-5-(5-(1-((2-(methylsulfonyl)ethyl)amino)-2,3-dihydro-1H-inden-4-yl)-1,3,4-thiadiazol-2-yl)benzonitrile]
The EC50 of the first is higher: 0.05 to 0.5 nM for the first, < 0.05 nM for the second.

First: CC(C)Oc1ccc(-c2nnc(-c3cccc4c3CCC4NCc3ncc[nH]3)s2)cc1C#N (stereo in doubt) [Compound 29, (R)-5-(5-(1-(((1H-imidazol-2-yl)methyl)amino)-2,3-dihydro-1H-inden-4-yl)-1,3,4-thiadiazol-2-yl) -2-isopropoxybenzonitrile]
Second: CC(C)Oc1ccc(-c2ncc(-c3cccc4c3CCC4NCc3ncc[nH]3)s2)cc1C#N (stereo in doubt) [Compound 109, (R)-5-(5-(1-(((1H-imidazol-2-yl)methyl)amino)-2,3-dihydro-1H-inden-4-yl)thiazol-2-yl)-2-isopropoxybenzonitrile]
The EC50 of the first is lower: 0.05 to 0.5 nM for the first, 0.5 to 5 nM for the second.

Compared with `CC(C)Oc1ccc(-c2nnc(-c3cccc4c3CCC4NS(C)(=O)=O)s2)cc1C#N` (stereo in doubt) [Compound 34, (R)-N-(4-(5-(3-cyano-4-isopropoxyphenyl)-1,3,4-thiadiazol-2-yl)-2,3-dihydro-1H-inden-1-yl)methanesulfonamide], `CC(C)Oc1ccc(-c2nnc(-c3cccc4c3CCC4NS(=O)(=O)CC(=O)O)s2)cc1C#N` (stereo in doubt) [Compound 41, (R)-2-(N-(4-(5-(3-cyano-4-isopropoxyphenyl)-1,3,4-thiadiazol-2-yl)-2,3-dihydro-1H-inden-1-yl)sulfamoyl)acetic acid] is lower in EC50: 0.05 to 0.5 nM for the first, < 0.05 nM for the second.

`CC(C)Oc1ccc(-c2nnc(-c3cccc4c3CC[C@@H]4NS(=O)(=O)CCN3CCC(O)C3)s2)cc1C#N` (stereo in doubt) [Compound 37, N-((S)-4-(5-(3-cyano-4-isopropoxyphenyl)-1,3,4-thiadiazol-2-yl)-2,3-dihydro-1H-inden-1-yl)-2-((R)-3-hydroxypyrrolidin-1-yl)ethanesulfonamide] and `CC(C)Oc1ccc(-c2nnc(-c3cccc4c3CC[C@H]4NS(=O)(=O)CCN3CC[C@@H](O)C3)s2)cc1C#N` (stereo in doubt) [Compound 38, N-((R)-4-(5-(3-cyano-4-isopropoxyphenyl)-1,3,4-thiadiazol-2-yl)-2,3-dihydro-1H -inden-1-yl)-2-((R)-3-hydroxypyrrolidin-1-yl)ethanesulfonamide] fall in the same range of EC50: 0.5 to 5 nM for the first, 0.5 to 5 nM for the second.

Compared with `CC(C)Oc1ccc(-c2nnc(-c3cccc4c3CCC4NC(=O)N3CC[C@H](N(C)C)C3)s2)cc1C#N` (stereo in doubt) [Compound 57, (S)-N-((R)-4-(5-(3-cyano-4-isopropoxyphenyl)-1,3,4-thiadiazol-2-yl)-2,3-dihydro-1H-inden-1-yl)-3-(dimethylamino)pyrrolidine-1-carboxamide], `CC(C)Oc1ccc(-c2ncc(-c3cccc4c3CCC4NCC(=O)N3CC[C@H](O)C3)s2)cc1C#N` (stereo in doubt) [Compound 102, 5-(5-((R)-1-((2-((S)-3-hydroxypyrrolidin-1-yl)-2-oxoethyl)amino)-2,3-dihydro-1H-inden-4-yl)thiazol-2-yl)-2-isopropoxybenzonitrile hydrochloride] is lower in EC50: 0.5 to 5 nM for the first, 0.05 to 0.5 nM for the second. The second is the more potent here.

First: CC(C)Oc1ccc(-c2ncc(-c3cccc4c3CCC4O)s2)cc1C#N (stereo in doubt) [Compound 69, (R)-5-(5-(1-hydroxy-2,3-dihydro-1H-inden-4-yl)thiazol-2-yl)-2-isopropoxy benzonitrile]
Second: CC(C)Oc1ccc(-c2ncc(-c3cccc4c3CCC4NCCO)s2)cc1C#N (stereo in doubt) [Compound 91, (R)-5-(5-(1-((2-hydroxyethyl)amino)-2,3-dihydro-1H-inden-4-yl)thiazol-2-yl) -2-isopropoxybenzonitrile]
The EC50 of the first is lower: 0.05 to 0.5 nM for the first, 0.5 to 5 nM for the second.

First: CC(C)Oc1ccc(-c2ncc(-c3cccc4c3CCC4NCC(=O)O)s2)cc1C#N (stereo in doubt) [Compound 96, (R)-2-((4-(2-(3-cyano-4-isopropoxyphenyl)thiazol-5-yl)-2,3-dihydro-1H-inden-1-yl)amino)acetic acid]
Second: CC(C)Oc1ccc(-c2ncc(-c3cccc4c3CCC4NS(=O)(=O)CC(=O)O)s2)cc1C#N (stereo in doubt) [Compound 158, (R)-2-(N-(4-(2-(3-cyano-4-isopropoxyphenyl)thiazol-5-yl)-2,3-dihydro-1H-inden-1-yl)sulfamoyl)acetic acid]
The EC50 of the first is higher: 0.05 to 0.5 nM for the first, < 0.05 nM for the second.

`CC(C)Oc1ccc(-c2ncc(-c3cccc4c3CCC4NS(C)(=O)=O)s2)cc1C#N` (stereo in doubt) [Compound 111, (R)-N-(4-(2-(3-cyano-4-isopropoxyphenyl)thiazol-5-yl)-2,3-dihydro-1H-inden-1-yl)methanesulfonamide] and `CC(C)Oc1ccc(-c2ncc(-c3cccc4c3CCC4NS(=O)(=O)CCO)s2)cc1C#N` (stereo in doubt) [Compound 164, (R)-N-(4-(2-(3-cyano-4-isopropoxyphenyl)thiazol-5-yl)-2,3-dihydro-1H-inden-1-yl)-2-hydroxyethanesulfonamide] fall in the same range of EC50: 0.05 to 0.5 nM for the first, 0.05 to 0.5 nM for the second.

`CC(C)Oc1ccc(-c2ncc(-c3cccc4c3CC[C@@H]4NS(=O)(=O)CCN3CCCC(O)C3)s2)cc1C#N` (stereo in doubt) [Compound 141, N-((S)-4-(2-(3-cyano-4-isopropoxyphenyl)thiazol-5-yl)-2,3-dihydro-1H-inden-1-yl)-2-((R)-3-hydroxypiperidin-1-yl)ethanesulfonamide] and `CC(C)Oc1ccc(-c2ncc(-c3cccc4c3CC[C@H]4NS(=O)(=O)CCN3CCC[C@@H](O)C3)s2)cc1C#N` (stereo in doubt) [Compound 143, N-((R)-4-(2-(3-cyano-4-isopropoxyphenyl)thiazol-5-yl)-2,3-dihydro-1H-inden-1-yl)-2-((R)-3-hydroxypiperidin-1-yl)ethanesulfonamide] fall in the same range of EC50: 0.5 to 5 nM for the first, 0.5 to 5 nM for the second.

`COC(=O)CS(=O)(=O)NC1CCc2c(-c3cnc(-c4ccc(OC(C)C)c(C#N)c4)s3)cccc21` (stereo in doubt) [Compound 154, (R)-methyl 2-(N-(4-(2-(3-cyano-4-isopropoxyphenyl)thiazol-5-yl)-2,3-dihydro-1H-inden-1-yl)sulfamoyl)acetate] and `CC(C)Oc1ccc(-c2ncc(-c3cccc4c3CCC4NS(=O)(=O)CC(=O)N3CCOCC3)s2)cc1C#N` (stereo in doubt) [Compound 162, (R)—N-(4-(2-(3-cyano-4-isopropoxyphenyl)thiazol-5-yl)-2,3-dihydro-1H-inden-1-yl)-2-morpholino-2-oxoethanesulfonamide] fall in the same range of EC50: 0.05 to 0.5 nM for the first, 0.05 to 0.5 nM for the second.

First: CC(C)Oc1ccc(-c2ncc(-c3cccc4c3CCC4NCCS(C)(=O)=O)s2)cc1C#N (stereo in doubt) [Compound 220, (R)-2-isopropoxy-5-(5-(1-((2-(methylsulfonyl)ethyl)amino)-2,3-dihydro-1H-inden-4-yl)thiazol-2-yl)benzonitrile]
Second: CCOc1ccc(-c2nnc(-c3cccc4c3CCC4O)s2)cc1OCC (stereo not shown) [Compound 3]
The EC50 of the first is lower: 0.05 to 0.5 nM for the first, 0.5 to 5 nM for the second. The first is the more potent here.
